# Patent US9974755B2, “Induced expression of brain derived neurotrophic factor (BDNF) for treatment of neuromuscular, neurodegenerative, autoimmune, developmental and/or metabolic diseases” (Mitochon Pharmaceuticals, Inc., priority 2015, dated 2018)
# Entries after “also recorded” stand apart in the source; their conditions may differ.
# Key:
# N171-82Q HD mice [1] = test: Tapered beam and balance beam motor function in N171-82Q HD mice; assay type: in vivo, mouse; details: after 17-weeks of treatment, FIG. 8f
# Method: (§1) MP101 (DNP) was used in a mouse model of Huntington's Disease, the “Fragment Model” N171-82 HD mice, to determine its neuroprotective effects. The N171-82 HD mice were treated with MP101 at 0.5, 1 and 5 mg/kg by oral gavage daily for greater than 17-weeks. At the age of 26-weeks (17-weeks of treatment), the mice were tested for changes in behavioral, loss of brain volume, spiny neurons and general neurons. FIGS. 8a, 8b, 8c, 8d, 8e, and 8f show the effects of DNP (MP101 drug treatment).
# (§2) FIGS. 8a-8f show the effects of MP101 in the Huntington's Disease model N171-82Q after 13-weeks (age 22 weeks) and/or 17-weeks (age 26-weeks) of treatment with DNP.
# N171-82Q HD mice [2] = test: MRI brain volume in N171-82Q Huntington's Disease mice; assay type: in vivo, mouse; details: N171-82Q HD mice vs HD placebo
# Method: as §1, §2
# BDNF [3] = test: BDNF protein levels by immunoblot in the EAE mouse model of MS; assay type: in vivo; details: for Intensity of the BDNF band (immunoblot): lumbal spinal cord, Day 42, treated Day 7 to Day 21, FIG. 2a
# From the text: The tissue was taken on Day 42 of the study during the recovery phase from the lumbal spinal cord of representative mice that were immunized on Day 1 with the MOG peptide, then treated with MP101 starting on Day 7 and stopping on Day 21. […] Untreated animals are shown as naïve. The changes in BDNF levels are therefore 3-weeks post-treatment with DNP (aka MP101).
# wildtype mice = test: Kanic acid model of epilepsy, seizure time; assay type: in vivo, mouse; details: FIG. 6
# Method: DNP was also evaluated for a treatment of Epilepsy. The kanic acid model is an acute model of epilepsy caused by an injection in the right hippocampus of an analogue of glutamate (kanic acid) that over-stimulates the neurons causing death.
# APP/PS1 mice = test: Morris Water Maze in APP/PS1 mice (Alzheimer's); assay type: in vivo, mouse; details: 0.5, 1 and 5 mg/kg oral gavage for 4-months vs Vehicle, FIGS. 5a-5c
# Method: In addition, Alzheimer's Disease, representing about 70% of all dementia cases, was evaluated using the APP/PS1 mice, which express the APPswe mutation and PS1deltaE9 mutation and develop relatively rapid Aβ pathology and cognitive deficits. At 4-months of age, the APP/PS1 mice were treated for 4-months by oral gavage delivery with MP101 (DNP) at 0.5, 1 and 5 mg/kg. […] The amount of time spent in the quadrant is an indicator of whether the mice remember the general location, with increased time indicating increased memory.
# The amount of time spent in the quadrant is an indicator of whether the subject remembers the general location.
# [4] = test system: Experimental Autoimmune Encephalomyelitis (EAE); test: Spinal cord electron microscopy in the EAE mouse model of MS; assay type: in vivo; details: 5 mg/kg, Day-16 (peak of onset), vs placebo, FIG. 2d
# SIRT3 KO mice = test: 6-OHDA dopaminergic degeneration, rotarod in SIRT3 KO mice (Parkinson's); assay type: in vivo, mouse; details: 14-Days oral gavage, 6-OHDA in right striatum, FIG. 7b
# Method: (§3) The merits of treating Parkinson's Disease with MP101 (DNP) was evaluated in wildtype mice and SIRT3 KO mice with 6-OHDA injections after two weeks of MP101 treatment. We examined the neuroprotective effects of varying MP-101 doses (0.5, 1, 5 mg/kg) against dopaminergic degeneration of nigrostriatal neurons induced by a single unilateral stereotaxic injection of neurotoxin 6-hydroxydopamine (6-OHDA) in the right striatum of the brain of 2-3 month old male C57Bl/6 mice or SIRT3 KO mice. SIRT3 KO is a model of a heightened sensitivity to glutamate-induced calcium overload and excitotoxicity, and oxidative and mitochondrial stress, therefore ideal for evaluating Parkinson's Disease, Huntington's Disease and temporal lobe epilepsy.
# (§4) FIGS. 7a and 7b show the effects of DNP (MP101) treatment for 14-Days by oral gavage in protecting dopaminergic neuronal loss when the right striatum is injected with 6-OHDA after the last day.
# Mecp2 mutant mice [5] = test: Clasping test in Mecp2 mutant mice; assay type: in vivo, mouse; details: 1 mg/kg, 12-weeks of age, 1-month oral gavage, FIG. 4
# Method: (§5) MP101 was tested in a model of Rett Syndrome using Mecp2 mutant mice. Rett Syndrome is a developmental disorder in young girls, with first symptoms starting at about 18-months of age, including reduced head growth. FIGS. 3a, 3b, 3c and 4 show the effects of treating these mutant mice with MP101 at 0.5, 1 mg/kg and 5 mg/kg by oral gavage.
# BDNF [6] = test: BDNF mRNA in brain by semi quantitative PCR after two weeks daily oral gavage; assay type: in vivo, Wildtype C57BL/6J mice; details: FIG. 1
# Method: As described herein below, mitochondrial uncoupler DNP was tested in a range of doses in mice from 0.5 mg/kg of DNP to 10 mg/kg of DNP under oral chronic treatment to titrate the amount of drug in the brain required to induce increases of BDNF endogenously within the brain. […] Therefore, it was discovered that there is a specific and limited dose range of DNP that is necessary to achieve statistically significant survival and behavioral benefit for a host of diseases that benefit from increased BDNF levels. […]
# N171-82Q HD mice [7] = test: Neuronal biomarkers DARPP32 and PSD95 in N171-82Q HD mice; assay type: in vivo, mouse
# Method: as §1, §2
# [8] = test system: Experimental Autoimmune Encephalomyelitis (EAE); test: Clinical scores in the EAE mouse model of MS; assay type: in vivo; details: FIG. 2c
# C57Bl/6 mice = test: 6-OHDA dopaminergic degeneration, cylinder test in wildtype mice (Parkinson's); assay type: in vivo, mouse
# Method: as §3, §4
# [9] = acute single dose post-ischemia; cited from earlier work
# Mecp2 mutant mice [10] = test: Rotarod in Mecp2 mutant mice, a model of Rett Syndrome; assay type: in vivo, mouse; details: 8-weeks of age; 0.5, 1 and 5 mg/kg oral gavage vs mutant vehicle; FIG. 3a
# Method: as §5
# In FIGS. 3a and 3b, Mecp2 mutant mice, a model of Rett Syndrome, were treated with MP101 (DNP) at 6-weeks of age and tested on their coordination to walk on a rotating cylinder (rotarod). Wildtype mice are used as a benchmark for general decline in behavior compared to Mecp2 mutant mice treated with Vehicle, 0.5 mg/kg MP101, 1 mg/kg MP101 and 5 mg/kg MP101 by oral gavage.
smiles,measurement,setting,value
"O=[N+]([O-])c1ccc(O)c([N+](=O)[O-])c1 [DNP, 2,4-dinitrophenol]",Motor function in the balance beam,N171-82Q HD mice [1],improves motor function
same,Motor function in the tapered beam,N171-82Q HD mice [1],improves motor function
same,Brain volume loss in the cortex (MRI),N171-82Q HD mice [2]; FIG. 8b,minor loss
same,Brain volume loss in the striatum (MRI),N171-82Q HD mice [2]; FIG. 8c,minor loss
same,Intensity of the BDNF band (immunoblot),BDNF [3]; 0.5 mg/kg and 1 mg/kg vs placebo,increases
same,Intensity of the BDNF band (immunoblot),BDNF [3]; 5 mg/kg,plateau effect
same,BDNF protein level 3-weeks post treatment,"BDNF [3]; EAE model, after 2 weeks of treatment, FIG. 2b",statistically elevated level of BDNF protein; also recorded: BDNF levels are elevated in the brain; also recorded: lasting effect
same,Seizure time after kanic acid injection,"wildtype mice; 1, 5 and 10 mg/kg oral gavage for 2-weeks before injection",shortening of seizure time
same,Neural protection from over-stimulation by kanic acid,"wildtype mice; 1, 5 and 10 mg/kg oral gavage for 2-weeks, relative to Vehicle",provided neural protection
same,"Cognition / short term memory in Morris Water Maze (distance, time in quadrant, entries)",APP/PS1 mice,improved in short term memory
same,"Cognition / short term memory in Morris Water Maze (distance, time in quadrant, entries)",APP/PS1 mice; listed as MP101,improved cognition
same,Myelin sheaths surrounding the axons and axons (electron microscopy),[4],striking axonal protection
same,Myelin sheaths surrounding the axons and axons (electron microscopy),[4]; listed as MP101,completely intact
same,Motor coordination on rotating cylinder (rotarod),SIRT3 KO mice,improved motor coordination
same,Clasping test,Mecp2 mutant mice [5],shows an effect
same,BDNF levels in the brain at the highest dose compared with lower doses,"BDNF [6]; 10.0 mg/kg daily oral gavage, bell-shaped curve",reduced level of BDNF compared with the next two lower doses; also recorded: less BDNF is expressed
same,"BDNF levels in the brain (mRNA, delta-delta CT, percent change relative to placebo)","BDNF [6]; 0.5, 1.0, 5.0 and 10.0 mg/kg daily oral gavage",induce BDNF within the brain; also recorded: increases BDNF levels in the brain
same,"Medium spiny neurons, biomarker DARPP32","N171-82Q HD mice [7]; 26-weeks of age, FIG. 8d",preserves medium spiny neurons
same,"General neuronal loss, postsynaptic protein PSD95 levels","N171-82Q HD mice [7]; N171-82Q HD mice, FIG. 8e",preserves general neuronal loss
same,Progression of the phenotype on clinical scores,[8],attenuation of disease progression
same,Protection of dopaminergic neurons from 6-OHDA,"C57Bl/6 mice; 0.5, 1, 5 mg/kg for two weeks, C57Bl/6 or SIRT3 KO mice, FIG. 7",protected the dopaminergic neurons
same,Percent of left and right paw touches on the wall (cylinder),"C57Bl/6 mice; wildtype mice, 14-Days oral gavage, 6-OHDA in right striatum, FIG. 7a",improved
same,Infarct volume,[9],reduce infarct volume
same,ROSs species,[9],lower ROSs species
same,Ability to walk on the rotarod,Mecp2 mutant mice [10],fall less and can handle higher speeds of rotation
